Assay results as given in ChEMBL document CHEMBL5321250, “Polyketide- and Terpenoid-Derived Metabolites Produced by a Marine-Derived Fungus, Peroneutypa sp” (J Nat Prod, 2023).

Columns and labels:
[1] = system: Plasmodium falciparum; test: Antimalarial activity against MMV848 resistant Plasmodium falciparum 3D7r_MMV848 assessed as reduction in parasitemia measured after 72 hrs by SYBR Green I dye based fluorescence assay; assay type: functional, organism-based; conditions: 3D7r_MMV848, 72 h
[2] = Resistance index, ratio of IC50 for antimalarial activity against MMV848 resistant Plasmodium falciparum 3D7r_MMV848 to IC50 for antimalarial activity against Plasmodium falciparum 3D7; assay type: functional
[3] = system: Plasmodium falciparum; test: Antimalarial activity against CQ/SDX/PYR/MQ/CYC resistant Plasmodium falciparum Dd2 assessed as reduction in parasitemia measured after 72 hrs by SYBR Green I dye based fluorescence assay; assay type: functional, organism-based; conditions: Dd2, 72 h
[4] = Resistance index, ratio of IC50 for antimalarial activity against CQ/PYR/ATO resistant Plasmodium falciparum TM90C6B to IC50 for antimalarial activity against Plasmodium falciparum 3D7; assay type: functional
[5] = system: Plasmodium falciparum; test: Antimalarial activity against Plasmodium falciparum 3D7 assessed as reduction in parasitemia measured after 72 hrs by SYBR Green I dye based fluorescence assay; assay type: functional, organism-based; conditions: 3D7, 72 h
[6] = Resistance index, ratio of IC50 for antimalarial activity against CQ/SDX/PYR/MQ/CYC resistant Plasmodium falciparum Dd2 to IC50 for antimalarial activity against Plasmodium falciparum 3D7; assay type: functional
[7] = Cytotoxicity against human HepG2 cells assessed as inhibition of cell growth incubated for 72 hrs by MTT assay; assay type: toxicity, cell-based
[8] = system: Plasmodium falciparum; test: Antimalarial activity against CQ/PYR/ATO resistant Plasmodium falciparum TM90C6B assessed as reduction in parasitemia measured after 72 hrs by SYBR Green I dye based fluorescence assay; assay type: functional, organism-based

Compound | IC50 [1] | Ratio IC50 [2] | IC50 [3] | Ratio IC50 [4] | IC50 [5] | Ratio IC50 [6] | IC50 at 72 h [7] | IC50 [8]
O=c1occ(-c2ccc(O)cc2)c2cc(O)ccc12 | 23 µM | 1.2 | 37 µM | 1 | 19 µM | 1.9 | > 100 µM | 19 µM
C[C@@H]1CC[C@H]2[C@@H](C)C(=O)O[C@@H]3O[C@@]4(C)CC[C@@H]1[C@]32OO4 [ARTEMISININ] | 0.013 µM | 2 | 0.011 µM | 1 | 0.006 µM | 2 | – | –
CC(C)c1c(C(=O)Nc2ccccc2)c(-c2ccccc2)c(-c2ccc(F)cc2)n1CC[C@@H](O)C[C@@H](O)CC(=O)O [ATORVASTATIN] | – | – | – | > 1430 | – | – | – | > 1 µM
CCc1nc(N)nc(N)c1-c1ccc(Cl)cc1 [PYRIMETHAMINE] | – | – | > 10 µM | – | 0.06 µM | > 166 | – | –
